For 21 compounds, MIC results are on record in patent US10471046B2, “Method for treating, preventing, or reducing the risk of skin infection” (Melinta Subsidiary Corp., priority 2014, dated 2019).

Converted amounts (≈) assume the structure as drawn.

This test concerns S. aureus. In words: Minimum inhibitory concentrations (MICs) for S. aureus of exemplary compounds (Table 2). Format: cell-based. To be noted: Staphylococcus aureus, minimum inhibitory concentrations for S. aureus; read-out: MICs. Put shortly:
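MICs (μg/mL) against S. aureus come from microtiter-tray dilution susceptibility testing per NCCLS M7-A5, comparing growth with and without compound.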
Regarding `CC(=O)NC[C@H]1CN(c2ccc(-c3ccc(CNCc4[nH]cnc4C)cc3)c(F)c2)C(=O)O1` [Compound 4082, N-[3-(2-Fluoro-4′-{[(5-methyl-3H-imidazol-4-ylmethyl)-amino]-methyl}-biphenyl-4-yl)-2-oxo-oxazolidin-5-(S)-ylmethyl]-acetamide], the MIC is 32 µg/mL (≈ 70.9 µM).

On to `CC(=O)NC[C@H]1CN(c2ccc(-c3ccc(CNCc4c[nH]c5ccccc45)cc3)c(F)c2)C(=O)O1` [Compound 4083, N-[3-(2-Fluoro-4′-{[(1H-indol-3-ylmethyl)-amino]-methyl}-biphenyl-4-yl)-2-oxo-oxazolidin-5-(S)-ylmethyl]-acetamide], for which the MIC was determined as 2 µg/mL (≈ 4.11 µM).

`CC(=O)NC[C@H]1CN(c2ccc(-c3ccc(CNCc4ccc(-c5ccccc5)s4)cc3)c(F)c2)C(=O)O1` [Compound 4084, N-[3-(2-Fluoro-4′-{[(5-phenyl-thiophen-2-ylmethyl)-amino]-methyl}-biphenyl-4-yl)-2-oxo-oxazolidin-5-(S)-ylmethyl]-acetamide]: the MIC was 128 µg/mL (≈ 242 µM).

With `CC(=O)NC[C@H]1CN(c2ccc(-c3ccc(CNCc4cc(C)c(C)o4)cc3)c(F)c2)C(=O)O1` [Compound 4085, N-[3-(4′-{[(4,5-Dimethyl-furan-2-ylmethyl)-amino]-methyl}-2-fluoro-biphenyl-4-yl)-2-oxo-oxazolidin-5-(S)-ylmethyl]-acetamide], the MIC was found to be 4 µg/mL (≈ 8.59 µM).

With `CC(=O)NC[C@H]1CN(c2ccc(-c3ccc(CNCc4ccsc4)cc3)c(F)c2)C(=O)O1` [Compound 4086, N-[3-(2-Fluoro-4′-{[(thiophen-3-ylmethyl)-amino]-methyl}-biphenyl-4-yl)-2-oxo-oxazolidin-5-(S)-ylmethyl]-acetamide], the MIC came to 4 µg/mL (≈ 8.82 µM).

`CC(=O)NC[C@H]1CN(c2ccc(-c3ccc(CNCCc4ccccn4)cc3)c(F)c2)C(=O)O1` [Compound 4087, N-(3-{2-Fluoro-4′-[(2-pyridin-2-yl-ethylamino)-methyl]-biphenyl-4-yl}-2-oxo-oxazolidin-5-(S)-ylmethyl)-acetamide]: the MIC worked out at 4 µg/mL (≈ 8.65 µM).

In the case of `CC(=O)NC[C@H]1CN(c2ccc(-c3ccc(CNCc4ccco4)c(F)c3F)c(F)c2)C(=O)O1` [Compound 4088, N-[2-Oxo-3-(2,2′,3′-trifluoro-4′-{[(furan-2-ylmethyl)-amino]-methyl}-biphenyl-4-yl)-oxazolidin-5-(S)-ylmethyl]-acetamide], the MIC was determined as 2 µg/mL (≈ 4.22 µM).

For the compound `CC(=O)NC[C@H]1CN(c2ccc(-c3ccc(CNCc4ccncc4)c(F)c3F)c(F)c2)C(=O)O1` [Compound 4089, N-[2-Oxo-3-(2,2′,3′-trifluoro-4′-{[(pyridin-4-ylmethyl)-amino]-methyl}-biphenyl-4-yl)-oxazolidin-5-(S)-ylmethyl]-acetamide], the MIC stood at 2 µg/mL (≈ 4.13 µM).

On to `CC(=O)NC[C@H]1CN(c2ccc(-c3ccc(CNCc4ccccn4)c(F)c3F)c(F)c2)C(=O)O1` [Compound 4090, N-[2-Oxo-3-(2,2′,3′-trifluoro-4′-{[(pyridin-2-ylmethyl)-amino]-methyl}-biphenyl-4-yl)-oxazolidin-5-(S)-ylmethyl]-acetamide], for which the MIC was 4 µg/mL (≈ 8.26 µM).

On to `CC(=O)NC[C@H]1CN(c2ccc(-c3ccc(CNCc4ncc[nH]4)cc3)c(F)c2)C(=O)O1` [Compound 4091, N-[3-(2-Fluoro-4′-{[(1H-imidazol-2-ylmethyl)-amino]-methyl}-biphenyl-4-yl)-2-oxo-oxazolidin-5-(S)-ylmethyl]-acetamide], for which the MIC turned out to be 8 µg/mL (≈ 18.3 µM).

In the case of `CC(=O)NC[C@H]1CN(c2ccc(-c3ccc(CNCc4nc5ccccc5[nH]4)cc3)c(F)c2)C(=O)O1` [Compound 4092, N-[3-(4′-{[(1H-Benzoimidazol-2-ylmethyl)-amino]-methyl}-2-fluoro-biphenyl-4-yl)-2-oxo-oxazolidin-5-(S)-ylmethyl]-acetamide], the MIC turned out to be 4 µg/mL (≈ 8.2 µM).

Regarding `CC(=O)NC[C@H]1CN(c2ccc(-c3ccc(CNCc4ccc(S(N)(=O)=O)cc4)cc3)c(F)c2)C(=O)O1` [Compound 4093, N-(3-{2-Fluoro-4′-[(4-sulfamoyl-benzylamino)-methyl]-biphenyl-4-yl}-2-oxo-oxazolidin-5-(S)-ylmethyl)-acetamide], the MIC was 8 µg/mL (≈ 15.2 µM).

Take `CC(=O)NC[C@H]1CN(c2ccc(-c3ccc(CNCCc4ccc(S(N)(=O)=O)cc4)cc3)c(F)c2)C(=O)O1` [Compound 4094, N-[3-(2-Fluoro-4′-{[2-(4-sulfamoyl-phenyl)-ethylamino]-methyl}-biphenyl-4-yl)-2-oxo-oxazolidin-5-(S)-ylmethyl]-acetamide]: the MIC stood at 2 µg/mL (≈ 3.7 µM).

In the case of `CC(=O)NC[C@H]1CN(c2ccc(-c3ccc(CNCc4c(CO)cnc(C)c4O)cc3)c(F)c2)C(=O)O1` [Compound 4095, N-[3-(2-Fluoro-4′-{[(3-hydroxy-5-hydroxymethyl-2-methyl-pyridin-4-ylmethyl)-amino]-methyl}-biphenyl-4-yl)-2-oxo-oxazolidin-5-(S)-ylmethyl]-acetamide], the MIC worked out at 4 µg/mL (≈ 7.87 µM).

Regarding `CC(=O)NC[C@H]1CN(c2ccc(-c3ccc(CNCCc4scnc4C)cc3)c(F)c2)C(=O)O1` [Compound 4096, N-[3-(2-Fluoro-4′-{[2-(4-methyl-thiazol-5-yl)-ethylamino]-methyl}-biphenyl-4-yl)-2-oxo-oxazolidin-5-(S)-ylmethyl]-acetamide], the MIC stood at 4 µg/mL (≈ 8.29 µM).

With `CC(=O)NC[C@H]1CN(c2ccc(-c3ccc(C(=N)NCc4ccccn4)cc3)c(F)c2)C(=O)O1` [Compound 4097, N-{3-[2-Fluoro-4′-(N-pyridin-2-ylmethyl-carbamimidoyl)-biphenyl-4-yl]-2-oxo-oxazolidin-5-(S)-ylmethyl}-acetamide], the MIC amounted to 16 µg/mL (≈ 34.7 µM).

Turning to `COc1ccc2[nH]cc(CNCc3ccc(-c4ccc(N5C[C@H](CNC(C)=O)OC5=O)cc4F)cc3)c2c1` [Compound 4098, N-[3-(2-Fluoro-4′-{[(5-methoxy-1H-indol-3-ylmethyl)-amino]-methyl}-biphenyl-4-yl)-2-oxo-oxazolidin-5-(S)-ylmethyl]-acetamide], the MIC was determined as 2 µg/mL (≈ 3.87 µM).

On to `CC(=O)NC[C@H]1CN(c2ccc(-c3ccc(CNCc4sccc4C)cc3)c(F)c2)C(=O)O1` [Compound 4099, N-[3-(2-Fluoro-4′-{[(3-methyl-thiophen-2-ylmethyl)-amino]-methyl}-biphenyl-4-yl)-2-oxo-oxazolidin-5-(S)-ylmethyl]-acetamide], for which the MIC is 4 µg/mL (≈ 8.55 µM).

Turning to `CC(=O)NC[C@H]1CN(c2ccc(-c3ccc(CNCc4cccn4S(=O)(=O)c4ccccc4)cc3)c(F)c2)C(=O)O1` [Compound 4100, N-[3-(4′-{[(1-Benzenesulfonyl-1H-pyrrol-2-ylmethyl)-amino]-methyl}-2-fluoro-biphenyl-4-yl)-2-oxo-oxazolidin-5-(S)-ylmethyl]-acetamide], the MIC came out at 4 µg/mL (≈ 6.94 µM).

Turning to `CC(=O)NC[C@H]1CN(c2ccc(-c3ccc(CNCc4c[nH]c(=O)[nH]c4=O)cc3)c(F)c2)C(=O)O1` [Compound 4101, N-[3-(4′-{[(2,4-Dioxo-1,2,3,4-tetrahydro-pyrimidin-5-ylmethyl)-amino]-methyl}-2-fluoro-biphenyl-4-yl)-2-oxo-oxazolidin-5-(S)-ylmethyl]-acetamide], the MIC came out at 1 µg/mL (≈ 2.08 µM).

Consider `CC(=O)NC[C@H]1CN(c2ccc(-c3ccc(C(=O)NCc4ccncc4)cc3)c(F)c2)C(=O)O1` [Compound 4102, 4′-[5-(S)-(Acetylamino-methyl)-2-oxo-oxazolidin-3-yl]-2′-fluoro-biphenyl-4-carboxylic acid (pyridin-4-ylmethyl)-amide], for which the MIC stood at 2 µg/mL (≈ 4.32 µM).
